Consider 29 compounds from patent US12338255B2, “Bicyclic substituted sulfonylurea compounds as inhibitors of interleukin-1 activity” (Viva Star Biosciences (Suzhou) Co., Ltd., priority 2022, dated 2025).

The target of this experiment is T1, NLRP3 (Homo sapiens, UniProt Q96P20).
T1 construct: Seed THP-1 cells (5.56*10^5 cells/mL) containing 1.0 ug/mL LPS; endogenous in cells; host or cells: THP-1 cells
The experiment is described as follows: THP-1 LPS/nigericin IL1β release (pyroptosis assay), HTRF. The experiment is classed as cell-based. The settings on record: NLRP3 inhibitory activity; THP-1 cells, 1.0 ug/mL LPS, compound 3 hrs, nigericin 5 uM 1 hr, IL1β in supernatant. How it is done: The following method was used for compound screening. • 1. Seed THP-1 cells (5.56*10^5 cells/mL) containing 1.0 ug/mL LPS (SIGMA, L6529) in 45 uL RPMI 1640 medium (without FBS) into 384-well plate (Thermo Scientific, 164688). • 2. Add 5 uL compound (10 doses starting from 5 uM, 1:3 dilution) or vehicle (0.05% DMSO in medium) to the appropriate wells. • 3. Centrifuge the plates at 1000 rpm for 2 mins and incubate for 3 hrs at 37° C., 5% CO2. • 4. Add 5 uL nigericin (MEC, HY-100381) (final conc. 5 uM) to sample wells and positive control wells; add 5 uL RPMI 1640 medium to negative control wells. • 5. Centrifuge plates at 1000 rpm for 2 mins and incubate for 1 hr at 37° C., 5% CO2. • 6. At the end of the incubation period, centrifuge plates at 1000 rpm for 6 mins and transfer 8 uL supernatant into 384-well assay plates (PerkinElmer, 6008280). • 7. Add 8 ul RPMI 1640 medium into each well and spin down for 10 secs. • 8. Prepare the standard solutions and pre-mixed IL1β antibodie solution of Human IL1β kits (PerkinElmer, 62HIL1BPEH) according to the instruction. • 9. Add 16 uL standard solutions into clear wells of 384-well assay plates. • 10. Add 4 uL pre-mixed IL1β antibodie solution to all wells including sample wells, positive control wells, negative control wells and standard solutions wells. • 11. Seal the plates, spin down for 10 secs, incubation for overnight at RT and read on an HTRF® compatible reader (BMG LABTECH, PHERAstar FS). • 12. The concentrations of IL1β for treated wells are calculated by the standard curve. • 13. The IC50 data is fitted to a non-liner regression equation (log inhibitor vs. response—Variable slope four parameters)).

Molecules are shown by their SMILES.

T1 sequence (Q96P20 whole entry): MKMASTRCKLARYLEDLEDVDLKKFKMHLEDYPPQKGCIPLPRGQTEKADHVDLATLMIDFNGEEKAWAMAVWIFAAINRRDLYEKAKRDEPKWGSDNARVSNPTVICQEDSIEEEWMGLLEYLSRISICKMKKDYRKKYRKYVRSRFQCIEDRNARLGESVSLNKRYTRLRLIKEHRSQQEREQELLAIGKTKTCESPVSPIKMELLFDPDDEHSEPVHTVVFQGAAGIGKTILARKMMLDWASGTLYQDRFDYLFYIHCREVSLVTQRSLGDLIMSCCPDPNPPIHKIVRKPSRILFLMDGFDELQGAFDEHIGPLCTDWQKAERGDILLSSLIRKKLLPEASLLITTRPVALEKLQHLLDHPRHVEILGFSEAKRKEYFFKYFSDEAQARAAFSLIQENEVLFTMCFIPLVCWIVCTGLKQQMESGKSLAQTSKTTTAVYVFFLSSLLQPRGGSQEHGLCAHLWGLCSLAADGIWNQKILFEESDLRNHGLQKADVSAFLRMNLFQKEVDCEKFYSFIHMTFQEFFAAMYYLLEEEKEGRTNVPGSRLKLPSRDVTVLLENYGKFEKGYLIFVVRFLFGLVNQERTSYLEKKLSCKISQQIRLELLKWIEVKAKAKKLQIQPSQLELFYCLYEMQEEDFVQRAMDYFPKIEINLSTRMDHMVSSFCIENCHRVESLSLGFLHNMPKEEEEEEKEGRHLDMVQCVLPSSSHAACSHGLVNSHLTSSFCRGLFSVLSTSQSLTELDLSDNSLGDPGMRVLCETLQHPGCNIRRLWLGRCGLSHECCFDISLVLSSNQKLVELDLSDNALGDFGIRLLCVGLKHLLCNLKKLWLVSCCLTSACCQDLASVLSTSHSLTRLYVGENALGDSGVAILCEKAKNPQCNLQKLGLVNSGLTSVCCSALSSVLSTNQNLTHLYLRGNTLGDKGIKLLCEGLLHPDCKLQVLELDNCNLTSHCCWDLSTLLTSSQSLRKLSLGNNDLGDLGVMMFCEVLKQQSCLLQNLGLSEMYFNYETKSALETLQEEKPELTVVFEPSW

For orientation: IC50 means the concentration that gives 50% inhibition. Low readings indicate greater potency in that assay, high ones weaker potency in that assay. Regarding `O=C(Nc1c(-c2ccn3nccc3c2)ccc2c1CCC2)NS(=O)(=O)c1cc2n(n1)CCO[C@@H]2C1CC1` (single isomer, unassigned) [Example 1], the IC50 is ≤ 100 nM. Regarding `O=C(Nc1c(-c2ccc3ccnn3c2)ccc2c1CCC2)NS(=O)(=O)c1cc2n(n1)CCO[C@@H]2C1CC1` (single isomer, unassigned) [Example 2], the IC50 lay in the range of 100 to 500 nM. For `O=C(Nc1c(-c2ccn3nncc3c2)ccc2c1CCC2)NS(=O)(=O)c1cc2n(n1)CCO[C@@H]2C1CC1` (single isomer, unassigned) [Example 3] the value was ≤ 100 nM; for `O=C(Nc1c(-c2ccc3ncnn3c2)ccc2c1CCC2)NS(=O)(=O)c1cc2n(n1)CCO[C@@H]2C1CC1` (single isomer, unassigned) [Example 4], 100 to 500 nM; for `O=C(Nc1c(-c2ccn3nccc3c2)ccc2c1CCC2)NS(=O)(=O)c1cc2n(n1)CCO[C@H]2C1CC1` (single isomer, unassigned) [Example 5], ≤ 100 nM. `O=C(Nc1c(-c2ccc3ccnn3c2)ccc2c1CCC2)NS(=O)(=O)c1cc2n(n1)CCO[C@H]2C1CC1` (single isomer, unassigned) [Example 6] displayed an IC50 of 100 to 500 nM.

The compound `O=C(Nc1c(-c2ccn3nncc3c2)ccc2c1CCC2)NS(=O)(=O)c1cc2n(n1)CCO[C@H]2C1CC1` (single isomer, unassigned) [Example 7] came in with an IC50 of 100 to 500 nM. On to `O=C(Nc1c(-c2ccc3ncnn3c2)ccc2c1CCC2)NS(=O)(=O)c1cc2n(n1)CCO[C@H]2C1CC1` (single isomer, unassigned) [Example 8], for which the IC50 was in the range of 100 to 500 nM. For `Cc1cc2c(c(NC(=O)NS(=O)(=O)c3cc4n(n3)CCO[C@@H]4C3CC3)c1-c1ccn3nccc3c1)CCC2` (single isomer, unassigned) [Example 9] the value was ≤ 100 nM; for `O=C(Nc1c(-c2ccn3cncc3c2)ccc2c1CCC2)NS(=O)(=O)c1cc2n(n1)CCO[C@@H]2C1CC1` (single isomer, unassigned) [Example 10], 100 to 500 nM; for `O=C(Nc1c(-c2ccn3ccnc3c2)ccc2c1CCC2)NS(=O)(=O)c1cc2n(n1)CCO[C@@H]2C1CC1` (single isomer, unassigned) [Example 11], 100 to 500 nM. With `O=C(Nc1c(-c2ccc3cncn3c2)ccc2c1CCC2)NS(=O)(=O)c1cc2n(n1)CCO[C@@H]2C1CC1` (single isomer, unassigned) [Example 12], the IC50 was in the range of 100 to 500 nM. For `O=C(Nc1c(-c2ccn3ncnc3c2)ccc2c1CCC2)NS(=O)(=O)c1cc2n(n1)CCO[C@@H]2C1CC1` (single isomer, unassigned) [Example 13] the value was 100 to 500 nM; for `O=C(Nc1c(-c2ccc3nncn3c2)ccc2c1CCC2)NS(=O)(=O)c1cc2n(n1)CCO[C@@H]2C1CC1` (single isomer, unassigned) [Example 14], 500 to 1000 nM; for `Cc1cc2c(c(NC(=O)NS(=O)(=O)c3cc4n(n3)CCO[C@@H]4C3CC3)c1-c1ccn3ccnc3c1)CCC2` (single isomer, unassigned) [Example 15], ≤ 100 nM. For `O=C(Nc1c(-c2ccn3nccc3c2)ccc2c1CCC2)NS(=O)(=O)c1cc2n(n1)C(C1CC1)COC2` (centres unmarked) [Example 16, 7-cyclopropyl-N-((5-(pyrazolo[1,5-a]pyridin-5-yl)-2,3-dihydro-1H-inden-4-yl)carbamoyl)-6,7-dihydro-4H-pyrazolo[5,1-c][1,4]oxazine-2-sulfonamide] the value was 100 to 500 nM; for `Cc1cc2c(c(NC(=O)NS(=O)(=O)c3cc4n(n3)CCOC43CCC3)c1-c1ccn3nccc3c1)CCC2` [Example 17, N-((6-methyl-5-(pyrazolo[1,5-a]pyridin-5-yl)-2,3-dihydro-1H-inden-4-yl)carbamoyl)-6′,7′-dihydrospiro[cyclobutane-1,4′-pyrazolo[5,1-c][1,4]oxazine]-2′-sulfonamide], ≤ 100 nM. The value for `Cc1cc2c(c(NC(=O)NS(=O)(=O)c3cn4c(n3)C(C3CC3)OCC4)c1-c1ccn3nccc3c1)CCC2` (centres unmarked) [Example 18, 8-cyclopropyl-N-((6-methyl-5-(pyrazolo[1,5-a]pyridin-5-yl)-2,3-dihydro-1H-inden-4-yl)carbamoyl)-5,6-dihydro-8H-imidazo[2,1-c][1,4]oxazine-2-sulfonamide] was ≤ 100 nM; that for `Cc1cc2c(c(NC(=O)NS(=O)(=O)c3cn4c(n3)C(C3CC3)OCC4)c1-c1ccnc3[nH]ccc13)CCC2` (centres unmarked) [Example 19, 8-cyclopropyl-N-((6-methyl-5-(1H-pyrrolo[2,3-b]pyridin-4-yl)-2,3-dihydro-1H-inden-4-yl)carbamoyl)-5,6-dihydro-8H-imidazo[2,1-c][1,4]oxazine-2-sulfonamide] was 500 to 1000 nM. Compound `Cc1cc2c(c(NC(=O)NS(=O)(=O)c3cc4n(n3)CCOC4(C)C)c1-c1ccnc3[nH]ccc13)CCC2` [Example 20, 4,4-dimethyl-N-((6-methyl-5-(1H-pyrrolo[2,3-b]pyridin-4-yl)-2,3-dihydro-1H-inden-4-yl)carbamoyl)-6,7-dihydro-4H-pyrazolo[5,1-c][1,4]oxazine-2-sulfonamide] gave an IC50 of 100 to 500 nM. The value for `Cc1cc2c(c(NC(=O)NS(=O)(=O)c3cnn4c3COCC4)c1-c1ccnc3[nH]ccc13)CCC2` [Example 21, N-((6-methyl-5-(1H-pyrrolo[2,3-b]pyridin-4-yl)-2,3-dihydro-1H-inden-4-yl)carbamoyl)-6,7-dihydro-4H-pyrazolo[5,1-c][1,4]oxazine-3-sulfonamide] was 100 to 500 nM; that for `Cc1cc2c(c(NC(=O)NS(=O)(=O)c3cc4n(n3)CCOC4(C)C)c1-c1ccn3nccc3c1)CCC2` [Example 22, 4,4-dimethyl-N-((6-methyl-5-(pyrazolo[1,5-a]pyridin-5-yl)-2,3-dihydro-1H-inden-4-yl)carbamoyl)-6,7-dihydro-4H-pyrazolo[5,1-c][1,4]oxazine-2-sulfonamide] was ≤ 100 nM. The value for `Cc1cc2c(c(NC(=O)NS(=O)(=O)c3cc4n(n3)CCOC4)c1-c1ccn3nccc3c1)CCC2` [Example 23, N-((6-methyl-5-(pyrazolo[1,5-a]pyridin-5-yl)-2,3-dihydro-1H-inden-4-yl)carbamoyl)-6,7-dihydro-4H-pyrazolo[5,1-c][1,4]oxazine-2-sulfonamide] was ≤ 100 nM; that for `O=C(Nc1c(-c2ccn3nccc3c2)ccc2c1CCC2)NS(=O)(=O)c1cnc2c(c1)N(C1CC1)CCO2` [Example 24, 1-cyclopropyl-N-((5-(pyrazolo[1,5-a]pyridin-5-yl)-2,3-dihydro-1H-inden-4-yl)carbamoyl)-2,3-dihydro-1H-pyrido[2,3-b][1,4]oxazine-7-sulfonamide] was ≤ 100 nM.

Take `Cc1cc2c(c(NC(=O)NS(=O)(=O)c3cnc4c(c3)N(C3CC3)CCO4)c1-c1ccn3nccc3c1)CCC2` [Example 25, 1-cyclopropyl-N-((6-methyl-5-(pyrazolo[1,5-a]pyridin-5-yl)-2,3-dihydro-1H-inden-4-yl)carbamoyl)-2,3-dihydro-1H-pyrido[2,3-b][1,4]oxazine-7-sulfonamide]: the IC50 is ≤ 100 nM. Consider `Cc1cc2c(c(NC(=O)NS(=O)(=O)c3cnn4c3COCC4)c1-c1ccn3nccc3c1)CCC2` [Example 26, N-((6-methyl-5-(pyrazolo[1,5-a]pyridin-5-yl)-2,3-dihydro-1H-inden-4-yl)carbamoyl)-6,7-dihydro-4H-pyrazolo[5,1-c][1,4]oxazine-3-sulfonamide], for which the IC50 was in the range of 100 to 500 nM. The value for `CO[C@@H]1COc2c(S(=O)(=O)NC(=O)Nc3c4c(cc(C)c3-c3ccn5nccc5c3)CCC4)cnn2C1` [Example 27, (S)-6-methoxy-N-((6-methyl-5-(pyrazolo[1,5-a]pyridin-5-yl)-2,3-dihydro-1H-inden-4-yl)carbamoyl)-6,7-dihydro-5H-pyrazolo[5,1-b][1,3]oxazine-3-sulfonamide] was ≤ 100 nM. The value for `CO[C@@H]1COc2c(S(=O)(=O)NC(=O)Nc3c4c(cc(C)c3-c3ccn5ccnc5c3)CCC4)cnn2C1` [Example 28, (S)-N-((5-(imidazo[1,2-a]pyridin-7-yl)-6-methyl-2,3-dihydro-1H-inden-4-yl)carbamoyl)-6-methoxy-6,7-dihydro-5H-pyrazolo[5,1-b][1,3]oxazine-3-sulfonamide] was ≤ 100 nM. For `CO[C@@H]1COc2c(S(=O)(=O)NC(=O)Nc3c4c(cc(C)c3-c3ccc5ccnn5c3)CCC4)cnn2C1` [Example 29, (S)-6-methoxy-N-((6-methyl-5-(pyrazolo[1,5-a]pyridin-6-yl)-2,3-dihydro-1H-inden-4-yl)carbamoyl)-6,7-dihydro-5H-pyrazolo[5,1-b][1,3]oxazine-3-sulfonamide] the value was ≤ 100 nM.
